From patent US20180024136A1, “Development of ABCG2-Sensitive Fluorescent Probe For Isolation of ABCG2low Neural Stem/Progenitor Cells” (National University of Singapore, priority 2015, published 2018)

Assay: Spectroscopic properties of CF library (absorbance, emission, quantum yield, extinction coefficient)
Assay type: physicochemical
Conditions: 100 μM in ethanol; for QY (Φ): reference fluorescein
Description: All the chemicals and solvents were purchased from Sigma Aldrich, Alfa Aesar, Fluka, MERCK, Tocris or Acros, and used without further purification. Normal phase purifications were carried out using Merck Silica Gel 60 (particle size: 0.040-0.063 mm, 230-400 mesh). Analytical characterization was performed on a HPLC-MS (Agilent-1200 series) with a DAD detector and a single quadrupole mass spectrometer (6130 series) with an ESI probe. ^1H-NMR and ^13C-NMR spectra were recorded on Bruker Avance 300 MHz NMR spectrometers, and chemical shifts are expressed in parts per million (ppm) and coupling constants are reported as a J value in Hertz (Hz). High resolution mass spectrometry (HRMS) data was recorded on a Micro mass VG 7035 (Mass Spectrometry Laboratory at National University of Singapore (NUS)). Spectroscopic and quantum yield data were measured on spectroscopic measurements, performed on a fluorometer and UV/VIS instrument, Synergy 4 of Bioteck Company. The slit width was 1 nm for both excitation and emission, and the data analysis was performed using GraphPrism 5.0.

SMILES: O=C(NC1CC1)c1ccc(-c2c3cc(Cl)c(=O)cc-3oc3cc(O)c(Cl)cc23)cc1 [CF-B2]
- Abs (nm): 520 nm
- Em (nm): 558 nm
- QY (Φ): 0.53

SMILES: CCOCCCNC(=O)c1ccc(-c2c3cc(Cl)c(=O)cc-3oc3cc(O)c(Cl)cc23)cc1 [CF-E4]
- Abs (nm): 520 nm
- Em (nm): 558 nm
- QY (Φ): 0.47

SMILES: COCCN(CCOC)C(=O)c1ccc(-c2c3cc(Cl)c(=O)cc-3oc3cc(O)c(Cl)cc23)cc1 [CF-H3]
- Abs (nm): 520 nm
- Em (nm): 553 nm
- QY (Φ): 0.82

SMILES: O=C(NC1Cc2ccccc2C1)c1ccc(-c2c3cc(Cl)c(=O)cc-3oc3cc(O)c(Cl)cc23)cc1 [CF-D8]
- Abs (nm): 520 nm
- Em (nm): 558 nm
- QY (Φ): 0.47

SMILES: CCCC(C)NC(=O)c1ccc(-c2c3cc(Cl)c(=O)cc-3oc3cc(O)c(Cl)cc23)cc1 (stereo not drawn) [CF-G5]
- Abs (nm): 520 nm
- Em (nm): 557 nm
- QY (Φ): 0.38

SMILES: O=C(NC1CCCCCC1)c1ccc(-c2c3cc(Cl)c(=O)cc-3oc3cc(O)c(Cl)cc23)cc1 [CF-C9]
- Abs (nm): 520 nm
- Em (nm): 558 nm
- QY (Φ): 0.50

SMILES: CC(C)NC(=O)c1ccc(-c2c3cc(Cl)c(=O)cc-3oc3cc(O)c(Cl)cc23)cc1 [CF-B8]
- Abs (nm): 520 nm
- Em (nm): 559 nm
- QY (Φ): 0.57

SMILES: CC(Cc1ccccc1)NC(=O)c1ccc(-c2c3cc(Cl)c(=O)cc-3oc3cc(O)c(Cl)cc23)cc1 (stereo not drawn) [CF-A6]
- Abs (nm): 520 nm
- Em (nm): 557 nm
- QY (Φ): 0.43

SMILES: CCC(C)(C)NC(=O)c1ccc(-c2c3cc(Cl)c(=O)cc-3oc3cc(O)c(Cl)cc23)cc1 [CF-G11]
- Abs (nm): 520 nm
- Em (nm): 557 nm
- QY (Φ): 0.35

SMILES: CCCCCCCCCCCCCCNC(=O)c1ccc(-c2c3cc(Cl)c(=O)cc-3oc3cc(O)c(Cl)cc23)cc1 [CF-A2]
- Abs (nm): 520 nm
- Em (nm): 558 nm
- QY (Φ): 0.42

SMILES: CCCNC(=O)c1ccc(-c2c3cc(Cl)c(=O)cc-3oc3cc(O)c(Cl)cc23)cc1 [CF-D9]
- Abs (nm): 520 nm
- Em (nm): 558 nm
- QY (Φ): 0.25

SMILES: COCCNC(=O)c1ccc(-c2c3cc(Cl)c(=O)cc-3oc3cc(O)c(Cl)cc23)cc1 [CF-B3]
- Abs (nm): 520 nm
- Em (nm): 557 nm
- QY (Φ): 0.32

SMILES: O=C(NCCc1ccccc1F)c1ccc(-c2c3cc(Cl)c(=O)cc-3oc3cc(O)c(Cl)cc23)cc1 [CF-H7]
- Abs (nm): 520 nm
- Em (nm): 557 nm
- QY (Φ): 0.59

SMILES: COc1ccccc1CCNC(=O)c1ccc(-c2c3cc(Cl)c(=O)cc-3oc3cc(O)c(Cl)cc23)cc1 [CF-F8]
- Abs (nm): 520 nm
- Em (nm): 559 nm
- QY (Φ): 0.34

SMILES: Cc1cccc(CN(C)C(=O)c2ccc(-c3c4cc(Cl)c(=O)cc-4oc4cc(O)c(Cl)cc34)cc2)c1 [CF-D7]
- Abs (nm): 520 nm
- Em (nm): 555 nm
- QY (Φ): 0.54

SMILES: CC1CCCCN1C(=O)c1ccc(-c2c3cc(Cl)c(=O)cc-3oc3cc(O)c(Cl)cc23)cc1 (stereo not drawn) [CF-H6]
- Abs (nm): 520 nm
- Em (nm): 553 nm
- QY (Φ): 0.65

SMILES: CCN(Cc1ccccc1)C(=O)c1ccc(-c2c3cc(Cl)c(=O)cc-3oc3cc(O)c(Cl)cc23)cc1 [CF-D5]
- Abs (nm): 520 nm
- Em (nm): 555 nm
- QY (Φ): 0.66

SMILES: O=C(c1ccc(-c2c3cc(Cl)c(=O)cc-3oc3cc(O)c(Cl)cc23)cc1)N1CCCC1 [CF-B7]
- Abs (nm): 520 nm
- Em (nm): 556 nm
- QY (Φ): 0.70

SMILES: CC(C)C(C)NC(=O)c1ccc(-c2c3cc(Cl)c(=O)cc-3oc3cc(O)c(Cl)cc23)cc1 (stereo not drawn) [CF-E6]
- Abs (nm): 520 nm
- Em (nm): 557 nm
- QY (Φ): 0.29

SMILES: O=C(NCC1CCCCC1)c1ccc(-c2c3cc(Cl)c(=O)cc-3oc3cc(O)c(Cl)cc23)cc1 [CF-G9]
- Abs (nm): 520 nm
- Em (nm): 557 nm
- QY (Φ): 0.27

SMILES: CC1CN(C(=O)c2ccc(-c3c4cc(Cl)c(=O)cc-4oc4cc(O)c(Cl)cc34)cc2)CC(C)O1 (stereo not drawn) [CF-D3]
- Abs (nm): 520 nm
- Em (nm): 555 nm
- QY (Φ): 0.47

SMILES: CN(CCc1ccccc1)C(=O)c1ccc(-c2c3cc(Cl)c(=O)cc-3oc3cc(O)c(Cl)cc23)cc1 [CF-D4]
- Abs (nm): 520 nm
- Em (nm): 555 nm
- QY (Φ): 0.69

SMILES: CCCCCNC(=O)c1ccc(-c2c3cc(Cl)c(=O)cc-3oc3cc(O)c(Cl)cc23)cc1 [CF-G10]
- Abs (nm): 520 nm
- Em (nm): 558 nm
- QY (Φ): 0.23

SMILES: O=C(NCCc1ccccc1Cl)c1ccc(-c2c3cc(Cl)c(=O)cc-3oc3cc(O)c(Cl)cc23)cc1 [CF-H8]
- Abs (nm): 520 nm
- Em (nm): 556 nm
- QY (Φ): 0.51

SMILES: O=C(NCCCN1CCCC1=O)c1ccc(-c2c3cc(Cl)c(=O)cc-3oc3cc(O)c(Cl)cc23)cc1 [CF-D2]
- Abs (nm): 520 nm
- Em (nm): 557 nm
- QY (Φ): 0.61

SMILES: O=C(NCCC(c1ccccc1)c1ccccc1)c1ccc(-c2c3cc(Cl)c(=O)cc-3oc3cc(O)c(Cl)cc23)cc1 [CF-D10]
- Abs (nm): 520 nm
- Em (nm): 558 nm
- QY (Φ): 0.59

SMILES: O=C(NCCCCc1ccccc1)c1ccc(-c2c3cc(Cl)c(=O)cc-3oc3cc(O)c(Cl)cc23)cc1 [CF-D11]
- Abs (nm): 520 nm
- Em (nm): 558 nm
- QY (Φ): 0.44

SMILES: O=C(NCCc1ccccc1-c1ccccc1)c1ccc(-c2c3cc(Cl)c(=O)cc-3oc3cc(O)c(Cl)cc23)cc1 [CF-H9]
- Abs (nm): 520 nm
- Em (nm): 558 nm
- QY (Φ): 0.30

SMILES: CC(C)OCCCNC(=O)c1ccc(-c2c3cc(Cl)c(=O)cc-3oc3cc(O)c(Cl)cc23)cc1 [CF-F9]
- Abs (nm): 520 nm
- Em (nm): 557 nm
- QY (Φ): 0.34

SMILES: COc1ccc(CCNC(=O)c2ccc(-c3c4cc(Cl)c(=O)cc-4oc4cc(O)c(Cl)cc34)cc2)cc1OC [CF-B10]
- Abs (nm): 520 nm
- Em (nm): 559 nm
- QY (Φ): 0.56

SMILES: CC1CCCC(NC(=O)c2ccc(-c3c4cc(Cl)c(=O)cc-4oc4cc(O)c(Cl)cc34)cc2)C1C (stereo not drawn) [CF-H2]
- Abs (nm): 520 nm
- Em (nm): 556 nm
- QY (Φ): 0.65

SMILES: CN(Cc1ccccc1)C(=O)c1ccc(-c2c3cc(Cl)c(=O)cc-3oc3cc(O)c(Cl)cc23)cc1 [CF-B6]
- Abs (nm): 520 nm
- Em (nm): 558 nm
- QY (Φ): 0.77

SMILES: CCC(NC(=O)c1ccc(-c2c3cc(Cl)c(=O)cc-3oc3cc(O)c(Cl)cc23)cc1)c1ccccc1 (stereo not drawn) [CF-A3]
- Abs (nm): 520 nm
- Em (nm): 559 nm
- QY (Φ): 0.40

SMILES: CCCCCCCCNC(=O)c1ccc(-c2c3cc(Cl)c(=O)cc-3oc3cc(O)c(Cl)cc23)cc1 [CF-C3]
- Abs (nm): 520 nm
- Em (nm): 559 nm
- QY (Φ): 0.37

SMILES: CC1CCC(NC(=O)c2ccc(-c3c4cc(Cl)c(=O)cc-4oc4cc(O)c(Cl)cc34)cc2)CC1 (stereo not drawn) [CF-H5]
- Abs (nm): 520 nm
- Em (nm): 557 nm
- QY (Φ): 0.67

SMILES: CCCCCCCCCCCCCCCCCCNC(=O)c1ccc(-c2c3cc(Cl)c(=O)cc-3oc3cc(O)c(Cl)cc23)cc1 [CF-D6]
- Abs (nm): 520 nm
- Em (nm): 555 nm
- QY (Φ): 0.32

SMILES: C#CCNC(=O)c1ccc(-c2c3cc(Cl)c(=O)cc-3oc3cc(O)c(Cl)cc23)cc1 [CF-F11]
- Abs (nm): 520 nm
- Em (nm): 559 nm
- QY (Φ): 0.21

SMILES: CCCCN(CC)C(=O)c1ccc(-c2c3cc(Cl)c(=O)cc-3oc3cc(O)c(Cl)cc23)cc1 [CF-B4]
- Abs (nm): 520 nm
- Em (nm): 556 nm
- QY (Φ): 0.90

SMILES: O=C(NC1CCCC1)c1ccc(-c2c3cc(Cl)c(=O)cc-3oc3cc(O)c(Cl)cc23)cc1 [CF-E5]
- Abs (nm): 520 nm
- Em (nm): 556 nm
- QY (Φ): 0.58

SMILES: CC1CCCCC1NC(=O)c1ccc(-c2c3cc(Cl)c(=O)cc-3oc3cc(O)c(Cl)cc23)cc1 (stereo not drawn) [CF-C7]
- Abs (nm): 520 nm
- Em (nm): 558 nm
- QY (Φ): 0.42
